How the values were obtained:
Assay type in all cases: in vivo
[1] = system: Spodoptera littoralis, Heliothis virescens, Plutella xylostella, Diabrotica balteata, Thrips tabaci, Tetranychus urticae; experiment: Pesticidal tests, same protocols (all six pests taken together); settings: same protocols as b207 (200 ppm), under the test conditions
From the text: (§1) Cotton leaf discs were placed on agar in a 24-well microtiter plate and sprayed with test solutions at an application rate of 200 ppm. After drying, the leaf discs were infested with 5 to L1 larvae. The samples were checked for mortality, feeding behavior, and growth regulation 3 days after treatment (DAT). The following compounds gave at least 80% control of Spodoptera littoralis: A1, A2, A3, A4, A6, A9, A10, A11, A12, A13, A14, A15, A16, A19, A20, A22, A23, A25, A26, A27, B1, B2, B3, B5, B6, B7, B8, B9, B11, B12, B13, B15, B16, B18, B19, B20, B21, B22, B24, B26, B27, B28, C1, C2, C3, C4, C5, C6, C7, C8, C9, C10, C12, C13, C16, C19, C20, C21, C22, C23, D1, D2, D3, D4, D5, D6, D7, D8, D9, D10, D11, D12, D13, D14, D15, D16, D17, D18, D19, D20, D21, D22, D23, D24. Heliothis virescens (Tobacco Budworm): Eggs (0-24 h old) were placed in 24-well microtiter plate on artificial diet and treated with test solutions at an application rate of 200 ppm (concentration in well 18 ppm) by pipetting. After an incubation period of 4 days, samples were checked for egg mortality, larval mortality, and growth regulation. The following compounds gave at least 80% control of Heliothis virescens: A1, A2, A3, A4, A13, A15, A17, A19, A20, A22, A23, A25, A26, A28, B1, B2, B3, B5, B6, B7, B9, B11, B13, B15, B18, B19, B20, B21, B25, B26, B27, B28, C1, C2, C3, C4, C5, C6, C7, C8, C9, C10, C12, C14, C16, C17, C19, C20, C21, C22, D1, D2, D3, D4, D5, D6, D7, D8, D9, D10, D11, D12, D13, D14, D15, D16, D17, D18, D19, D20, D21, D22, D23, E1, E2, E3, E4, E5. Plutella xylostella (Diamond Back Moth): 24-well microtiter plate (MTP) with artificial diet was treated with test solutions at an application rate of 200 ppm (concentration in well 18 ppm) by pipetting. After drying, the MTP's were infested with L2 larvae (7-12 per well). After an incubation period of 6 days, samples were checked for larval mortality and growth regulation. The following compounds gave at least 80% control of Plutella xylostella: A1, A3, A4, A10, All, A15, A19, A23, A25, B1, B2, B3, B5, B6, B7, B8, B9, B11, B13, B15, B18, B19, B20, B21, B26, B27, B28, C1, C2, C3, C4, C6, C7, C8, C9, C12, C16, C19, C20, C22, D1, D2, D3, D4, D5, D6, D7, D8, D9, D10, D12, D13, D14, D15, D16, D17, D18, D19, D20, D21, D22, D23, E1, E3, E5. Diabrotica balteata (Corn Root Worm): A 24-well microtiter plate (MTP) with artificial diet was treated with test solutions at an application rate of 200 ppm (concentration in well 18 ppm) by pipetting. After drying, the MTP's were infested with L2 larvae (6-10 per well). After an incubation period of 5 days, samples were checked for larval mortality and growth regulation. The following compounds gave at least 80% control of Diabrotica balteata: A2, A3, A4, A9, A11, A12, A13, A14, A15, A17, A19, A21, A22, A23, A24, A25, A26, B1, B2, B3, B6, B7, B8, B11, B13, B14, B15, B18, B19, B20, B21, B22, B26, B28, C1, C2, C3, C4, C5, C6, C7, C8, C9, C10, C12, C14, C15, C16, C19, C20, C21, C22, C23, C26, D1, D2, D4, D5, D6, D7, D8, D9, D10, D12, D14, D15, D16, D17, D18, D19, D20, D21, D22, D23, E2, E3, E5. Thrips tabaci (Onion Thrips): Sunflower leaf discs were placed on agar in a 24-well microtiter plate and sprayed with test solutions at an application rate of 200 ppm. After drying, the leaf discs were infested with an […] population of mixed ages. After an incubation period of 7 days, samples were checked for mortality. The following compounds gave at least 80% control of Thrips tabaci: B1, B7, B11, B15, B18, B19, B28, D1, D2, D3, D4, D5, D6, D7, D8, D9, D10, D12, D16, D18, D19, D20, D21, D23. Tetranychus urticae (Two-Spotted Spider Mite): Bean leaf discs on agar in 24-well microtiter plates were sprayed with test solutions at an application rate of 200 ppm. After drying, the leaf discs are infested with mite populations of mixed ages. 8 days later, discs are checked for egg mortality, larval mortality, and adult mortality. […]

[2] = system: Tetranychus urticae (Two-Spotted Spider Mite); experiment: Tetranychus urticae bean leaf disc spray test; settings: foliar, 192 h, 200 ppm spray on bean leaf discs, mite populations of mixed ages, egg, larval and adult mortality 8 days later
From the text: as §1

[3] = system: Heliothis virescens (Tobacco Budworm); experiment: Heliothis virescens egg test on artificial diet; settings: 96 h, 200 ppm (concentration in well 18 ppm), eggs 0-24 h old on artificial diet, egg mortality, larval mortality, growth regulation after 4 days
From the text: as §1

[4] = system: Plutella xylostella (Diamond Back Moth); experiment: Plutella xylostella larvae test on artificial diet; settings: 144 h, 200 ppm (concentration in well 18 ppm), L2 larvae, larval mortality and growth regulation after 6 days
From the text: as §1

[5] = system: Diabrotica balteata (Corn Root Worm); experiment: Diabrotica balteata larvae test on artificial diet; settings: 120 h, 200 ppm (concentration in well 18 ppm), L2 larvae, larval mortality and growth regulation after 5 days
From the text: as §1

[6] = system: Spodoptera littoralis (Egyptian Cotton Leafworm); experiment: Spodoptera littoralis cotton leaf disc spray test; settings: foliar, 72 h, 200 ppm spray on cotton leaf discs, L1 larvae, mortality, feeding behavior, growth regulation 3 DAT
From the text: as §1

[7] = system: Thrips tabaci (Onion Thrips); experiment: Thrips tabaci sunflower leaf disc spray test; settings: foliar, 168 h, 200 ppm spray on sunflower leaf discs, population of mixed ages, mortality after 7 days
From the text: as §1

Row | SMILES | effect on mortality, feeding behavior, or growth regulation [1] | pest or weed control at 200 ppm [2] [%] | pest or weed control at 200 ppm [3] [%] | pest or weed control at 200 ppm [4] [%] | pest or weed control at 200 ppm [5] [%] | pest or weed control at 200 ppm [6] [%] | pest or weed control at 200 ppm [7] [%]
1 | O=C(Nc1cccc(C2=NOC(c3cc(Cl)cc(Cl)c3)(C(F)(F)F)C2)c1)c1ccc(F)c(C(F)(F)F)c1 (racemic) [A18] | little or no effect | – | – | – | – | – | –
2 | O=C(Nc1cccc(C2=NOC(c3cc(Cl)cc(Cl)c3)(C(F)(F)F)C2)c1F)c1cc(C(F)(F)F)ccc1F (racemic) [B23] | little or no effect | – | – | – | – | – | –
3 | O=C(Nc1cc(C2=NOC(c3cc(Cl)cc(Cl)c3)(C(F)(F)F)C2)ccc1F)c1cc(Cl)ccc1F (racemic) [C11] | little or no effect | – | – | – | – | – | –
4 | O=C(Nc1cc(C2=NOC(c3cc(Cl)cc(Cl)c3)(C(F)(F)F)C2)ccc1F)c1cc(C(F)(F)F)ccc1F (racemic) [C25] | little or no effect | – | – | – | – | – | –
5 | N#Cc1ccc(C(=O)Nc2cccc(C3=NOC(c4cc(Cl)cc(Cl)c4)(C(F)(F)F)C3)c2)cc1 (stereo not shown) [A4, 4-cyano-N-{3-[5-(3,5-dichloro-phenyl)-5-trifluoromethyl-4,5-dihydro-isoxazol-3-yl]phenyl}-benzamide] | – | ≥ 80 | ≥ 80 | ≥ 80 | ≥ 80 | ≥ 80 | –
6 | O=C(Cc1ccc(Cl)cc1)Nc1cccc(C2=NOC(c3cc(Cl)cc(Cl)c3)(C(F)(F)F)C2)c1 (stereo not shown) [A5] | little or no effect | – | – | – | – | – | –
7 | COCC(=O)Nc1cccc(C2=NOC(c3cc(Cl)cc(Cl)c3)(C(F)(F)F)C2)c1 (stereo not shown) [A7] | little or no effect | – | – | – | – | – | –
8 | O=C(CBr)Nc1cccc(C2=NOC(c3cc(Cl)cc(Cl)c3)(C(F)(F)F)C2)c1 (stereo not shown) [A8] | little or no effect | – | – | – | – | – | –
9 | O=C(Nc1cccc(C2=NOC(c3cc(Cl)cc(Cl)c3)(C(F)(F)F)C2)c1F)c1ccccc1F (stereo not shown) [B1] | – | – | ≥ 80 | ≥ 80 | ≥ 80 | ≥ 80 | ≥ 80
10 | N#Cc1ccc(C(=O)Nc2cccc(C3=NOC(c4cc(Cl)cc(Cl)c4)(C(F)(F)F)C3)c2F)cc1 (stereo not shown) [B4] | little or no effect | – | – | – | – | – | –
11 | O=C(Nc1cccc(C2=NOC(c3cc(Cl)cc(Cl)c3)(C(F)(F)F)C2)c1F)c1ccc([N+](=O)[O-])cc1 (stereo not shown) [B5] | – | ≥ 80 | ≥ 80 | ≥ 80 | – | ≥ 80 | –
12 | O=C(Nc1cccc(C2=NOC(c3cc(Cl)cc(Cl)c3)(C(F)(F)F)C2)c1F)c1ccco1 (stereo not shown) [B10] | little or no effect | – | – | – | – | – | –
13 | COc1ccccc1C(=O)Nc1cccc(C2=NOC(c3cc(Cl)cc(Cl)c3)(C(F)(F)F)C2)c1F (stereo not shown) [B15] | – | – | ≥ 80 | ≥ 80 | ≥ 80 | ≥ 80 | ≥ 80
14 | O=C(Nc1cccc(C2=NOC(c3cc(Cl)cc(Cl)c3)(C(F)(F)F)C2)c1F)c1ccc(F)cc1 (stereo not shown) [B17] | little or no effect | – | – | – | – | – | –
15 | Cc1ccc(C(=O)Nc2cc(C3=NOC(c4cc(Cl)cc(Cl)c4)(C(F)(F)F)C3)ccc2F)cc1 (stereo not shown) [C9] | – | ≥ 80 | ≥ 80 | ≥ 80 | ≥ 80 | ≥ 80 | –
16 | COc1ccccc1C(=O)Nc1cc(C2=NOC(c3cc(Cl)cc(Cl)c3)(C(F)(F)F)C2)ccc1F (stereo not shown) [C18] | little or no effect | – | – | – | – | – | –
17 | O=C(Nc1cc(C2=NOC(c3cc(Cl)cc(Cl)c3)(C(F)(F)F)C2)ccc1F)c1ccccc1 (stereo not shown) [C19] | – | – | ≥ 80 | ≥ 80 | ≥ 80 | ≥ 80 | –
18 | O=C(Nc1cc(C2=NOC(c3cc(Cl)cc(Cl)c3)(C(F)(F)F)C2)ccc1F)c1ccc(F)cc1 (stereo not shown) [C20] | – | – | ≥ 80 | ≥ 80 | ≥ 80 | ≥ 80 | –
19 | O=C(Nc1cc(C2=NOC(c3cc(Cl)cc(Cl)c3)(C(F)(F)F)C2)ccc1F)c1ccc(F)cc1F (stereo not shown) [C24] | little or no effect | – | – | – | – | – | –
20 | N#Cc1ccc(C(=O)Nc2cc(C3=NOC(c4cc(Cl)cc(Cl)c4)(C(F)(F)F)C3)ccc2C#N)cc1 (stereo not shown) [D1] | – | ≥ 80 | ≥ 80 | ≥ 80 | ≥ 80 | ≥ 80 | ≥ 80
21 | N#Cc1ccc(C2=NOC(c3cc(Cl)cc(Cl)c3)(C(F)(F)F)C2)cc1NC(=O)c1ccccc1 (stereo not shown) [D2] | – | ≥ 80 | ≥ 80 | ≥ 80 | ≥ 80 | ≥ 80 | ≥ 80
22 | N#Cc1ccc(C2=NOC(c3cc(Cl)cc(Cl)c3)(C(F)(F)F)C2)cc1NC(=O)c1ccccc1F (stereo not shown) [D5] | – | – | ≥ 80 | ≥ 80 | ≥ 80 | ≥ 80 | ≥ 80
23 | N#Cc1ccc(C2=NOC(c3cc(Cl)cc(Cl)c3)(C(F)(F)F)C2)cc1NC(=O)c1cccc(F)c1F (stereo not shown) [D22] | – | – | ≥ 80 | ≥ 80 | ≥ 80 | ≥ 80 | –
24 | N#Cc1ccc(C2=NOC(c3cc(Cl)cc(Cl)c3)(C(F)(F)F)C2)cc1NC(=O)c1ccc(F)cc1F (stereo not shown) [D23] | – | – | ≥ 80 | ≥ 80 | ≥ 80 | ≥ 80 | ≥ 80

— patent US8410145B2, “Insecticidal compounds” (Syngenta Crop Protection LLC, priority 2007, dated 2013)
